Measured values published in patent US10618901B2 (GlaxoSmithKline Intellectual Property Development Limited, priority 2014, dated 2020).

Target: T1, 6HIS-Tev-LRRK2 (1326-2527) (Homo sapiens, UniProt Q5S007)
T1 construct: A LRRK2 cDNA encoding residues 1326-2527 was received from Dundee University; made in house; host or cells: Spodoptera frugiperda Sf9 (baculovirus, pFB-HTb)
T1 sequence (Q5S007 1326-2527): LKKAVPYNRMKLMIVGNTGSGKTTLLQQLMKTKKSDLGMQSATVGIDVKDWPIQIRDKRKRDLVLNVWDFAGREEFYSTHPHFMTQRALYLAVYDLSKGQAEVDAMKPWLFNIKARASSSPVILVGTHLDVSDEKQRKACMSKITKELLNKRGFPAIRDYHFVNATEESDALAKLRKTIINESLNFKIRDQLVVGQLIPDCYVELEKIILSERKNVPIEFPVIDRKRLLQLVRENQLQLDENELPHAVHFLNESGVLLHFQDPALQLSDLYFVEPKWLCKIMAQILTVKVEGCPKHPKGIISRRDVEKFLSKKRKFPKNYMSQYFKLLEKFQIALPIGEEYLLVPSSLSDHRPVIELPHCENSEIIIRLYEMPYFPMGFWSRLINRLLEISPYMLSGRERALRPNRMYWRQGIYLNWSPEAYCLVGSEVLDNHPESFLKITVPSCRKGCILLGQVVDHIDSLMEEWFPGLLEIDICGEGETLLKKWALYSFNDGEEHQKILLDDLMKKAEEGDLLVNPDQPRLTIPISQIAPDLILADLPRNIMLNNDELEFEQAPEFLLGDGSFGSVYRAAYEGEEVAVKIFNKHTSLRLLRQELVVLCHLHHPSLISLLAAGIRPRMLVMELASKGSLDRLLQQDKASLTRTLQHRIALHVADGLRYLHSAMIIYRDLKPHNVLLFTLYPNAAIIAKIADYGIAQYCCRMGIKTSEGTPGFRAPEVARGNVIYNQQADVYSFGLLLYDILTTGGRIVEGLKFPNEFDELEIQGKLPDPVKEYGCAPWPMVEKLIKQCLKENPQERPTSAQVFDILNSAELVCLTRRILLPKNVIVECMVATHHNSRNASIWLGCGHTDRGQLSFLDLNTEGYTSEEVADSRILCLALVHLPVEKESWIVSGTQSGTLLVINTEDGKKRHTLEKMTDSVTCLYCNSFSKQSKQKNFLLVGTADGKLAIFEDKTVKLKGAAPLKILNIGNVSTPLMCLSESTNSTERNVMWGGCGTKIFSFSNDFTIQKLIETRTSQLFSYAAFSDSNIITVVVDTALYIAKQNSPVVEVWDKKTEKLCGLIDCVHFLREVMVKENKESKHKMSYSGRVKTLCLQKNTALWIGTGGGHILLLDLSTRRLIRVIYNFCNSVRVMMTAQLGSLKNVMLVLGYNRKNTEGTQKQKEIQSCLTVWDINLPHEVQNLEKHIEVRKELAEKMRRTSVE
Experiment: LRRK2 Inhibition Mass Spectrometry Assay
Type: biochemical
Settings: 60 nM LRRK2 enzyme; 25 uM LRRKtide; 20 uM ATP; read-out: LRRK2 Inhibition Mass Spectrometry Assay (pIC50) (converted)
Protocol: A LRRK2 cDNA encoding residues 1326-2527 was received from Dundee University (described in M. Jaleel et al., 2007, Biochem J, 405: 407-417). This gene fragment was subcloned into pFB-HTb (Invitrogen) using BamHI and NotI restriction sites. The LRRK2 plasmid was recombined into the baculovirus genome according to the BAC-to-BAC protocol described by Invitrogen. Transfection into Spodoptera frugiperda (Sf9) insect cells was performed using Cellfectin (Invitrogen), according to the manufacturer's protocol to generate P1 and P2 baculovirus stocks.
Sf9 cells were grown in HyClone SFX (Thermo Scientific) growth media at 27° C., 80 rpm in shake flask until of a sufficient volume to inoculate a bioreactor. The cells were grown in a 20 liter working volume Wave bioreactor (GE Healthcare) at 27° C., 50% dissolved oxygen and an agitation rate 22 rocks per minute, 10 degree rock angle, 200 ml/min air with a cell concentration of approximately 6×e6 cells/ml. The cells were infected with P2 Baculovirus at a multiplicity of infection (MOI) of 3. The cultivation was continued for a 48 hour expression phase. The infected cells were removed from the growth media by centrifugation at 2500 g using a Sorvall RC 3C Plus centrifuge at 2500 g for 20 minutes. The cell pellet was immediately frozen and subsequently supplied for purification.
A 260 g pellet was allowed to thaw in a water bath at 27° C. with 800 ml lysis buffer/buffer A (50 mm Tris-HCl pH 8.5, 300 mM NaCl, 1 mm DTT, 10% glycerol, 1 ml/L calbiochem complete protease inhibitor cocktail and benzonase (50 ul/800 ml)) before being dounce homogenised on ice using 20 strokes per 100 ml. The suspension was packed in ice and sonicated at 50% amplitude for 3 min 10 sec on/off using a ¾″ probe. The suspension was then centrifuged at 100,000 g for 90 min, at 4° C.
The lysate (700 ml) was decanted from the insoluble pellet and contacted for 3 h at 4 C with 10 ml His bind Ni NTA resin by end over end mixing. The resin was recovered by centrifugation, 3000 g, 5 min at 4 C, and packed in an XK16 column. The column was then washed with 10 column volumes buffer A, 10 column volumes buffer B (buffer A+1M NaCl) and 10 column volumes buffer C (buffer A+20 mM imidazole). The column was then eluted with 15 column volumes buffer D (buffer A+300 mM imidazole) collecting 2 ml fractions. All washes and elution were conducted at 4 ml/min.
Fractions identified by SDS-PAGE as containing protein of interest were pooled and loaded directly onto a 320 ml SEC Superdex 200 pg column that was pre-equilibrated with buffer E (50 mM Tris-HCl pH 8.5, 300 mM NaCl, 10% glycerol, 1 mM DTT). The column was loaded and eluted with 1.2 column volumes buffer E at 2 ml/min collecting 2 ml fractions. Fractions identified by SDS-PAGE as containing protein of interest were tested for activity.
Production of LRRKtide for LRRK2 Inhibition Mass Spectrometry Assay
The ‘LRRKtide’ peptide H-RLGRDKYKTLRQIRQ-OH was synthesized as follows. The protected peptide was assembled on a solid-phase synthesiser using preloaded Wang resin and utilising standard Fmoc synthesis protocols. The crude peptide was obtained after cleavage from the resin with a mixture of trifluoroacetic acid (TFA), triisopropylsilane and water (95:2.5:2.5) for 3 hours at room temperature and was then purified using a C18 reverse-phase column utilising a 0.1% TFA-buffered water/acetonitrile gradient. The resulting fractions were analysed and fractions which were >95% pure by analytical HPLC and giving the correct molecular weight (mw) (by MALDiTOF mass spectroscopy) were pooled and freeze dried. The final material was analysed by HPLC and MALDiTOF mass spectroscopy.
LRRK2 Inhibition Mass Spectrometry Assay
This assay for Leucine Rich Repeat Kinase 2 (LRRK2) inhibition is based on the direct measurement of the peptide ‘LRRKtide’ (LRRKtide: RLGRDKYKT*LRQIRQ (H-RLGRDKYKTLRQIRQ-OH used for this screen)) and phosphorylated ‘LRRKtide’ using a high throughput RapidFire mass spectrometry assay. […]

IC50, 10 nM:
CCOc1nc(Nc2cnn(C3CCOCC3C)c2C)nc2[nH]ccc12 (single isomer, unassigned) [Example E113, (cis)-4-ethoxy-N-(5-methyl-1-(3-methyltetrahydro-2H-pyran-4-yl)-1H-pyrazol-4-yl)-7H-pyrrolo[2,3-d]pyrimidin-2-amine]
CCOc1nc(Nc2cnn(C3CN(C)CCC3(F)F)c2C)nc2[nH]ccc12 (single isomer, unassigned) [Example E121, N-(1-(4,4-difluoro-1-methylpiperidin-3-yl)-5-methyl-1H-pyrazol-4-yl)-4-ethoxy-7H-pyrrolo[2,3-d]pyrimidin-2-amine]
CCOc1nc(Nc2cnn(C3CN(C4COC4)CCC3(F)F)c2Cl)nc2[nH]ccc12 (single isomer, unassigned) [Example E124, N-(5-chloro-1-(4,4-difluoro-1-(oxetan-3-yl)piperidin-3-yl)-1H-pyrazol-4-yl)-4-ethoxy-7H-pyrrolo[2,3-d]pyrimidin-2-amine]
CCOc1nc(Nc2cnn(C3CC(N4CCOCC4)C3)c2C)nc2[nH]ccc12 (stereo not drawn) [Example E86, 4-ethoxy-N-(5-methyl-1-(3-morpholinocyclobutyl)-1H-pyrazol-4-yl)-7H-pyrrolo[2,3-d] pyrimidin-2-amine]

IC50, 7.94 nM:
CCOc1nc(Nc2cnn([C@H]3CCN(C4COC4)C[C@@H]3F)c2Cl)nc2[nH]ccc12 (single isomer, unassigned) [Example E104]
CCOc1nc(Nc2cnn([C@@H]3CCN(C4COC4)C[C@H]3F)c2Cl)nc2[nH]ccc12 (single isomer, unassigned) [Example E105]
CCOc1nc(Nc2cnn(C3CCN(C4COC4)CC3(F)F)c2Cl)nc2[nH]ccc12 (single isomer, unassigned) [Example E134, N-(5-chloro-1-(3,3-difluoro-1-(oxetan-3-yl)piperidin-4-yl)-1H-pyrazol-4-yl)-4-ethoxy-7H-pyrrolo[2,3-d]pyrimidin-2-amine]
CCOc1nc(Nc2cnn(C3CN(C4COC4)CCO3)c2Cl)nc2[nH]ccc12 (single isomer, unassigned) [Example E141, N-(5-chloro-1-(4-(oxetan-3-yl)morpholin-2-yl)-1H-pyrazol-4-yl)-4-ethoxy-7H-pyrrolo[2,3-d]pyrimidin-2-amine]
CCOc1nc(Nc2cnn(CCN3CCO[C@H](C(F)F)C3)c2C)nc2[nH]ccc12 [Example E100, (S)—N-(1-(2-(2-(difluoromethyl)morpholino)ethyl)-5-methyl-1H-pyrazol-4-yl)-4-ethoxy-7H-pyrrolo[2,3-d]pyrimidin-2-amine]
